Here are results for nine compounds from patent US6673355B1 (priority 1995, dated 2004).

One data set relates to CD1 mice. The settings on record: mouse, in vivo.
Another data set concerns CD1 mice ileal mucosa. The class given is cell-based, mouse.
In data set [1] the test system is infectious SA11 rotavirus. As to conditions: mouse, in vivo.
The conditions of data set [2]: in vivo.
The test system of a further data set is Balb/C mice. The settings on record: mouse, in vivo, ip.
In a further data set the test system is 19 day old pups. The settings on record: mouse, in vivo.
The test system of another data set is CFTR knock-out mice. As to conditions: mouse, in vivo.
The next data set deals with insect cells. As to conditions: cited from earlier work.
Data set [3] relates to mice. The settings on record: mouse, in vivo; cited from earlier work.
The test system of data set [4] is mice. As to conditions: mouse, in vivo.
A further data set relates to simian rotavirus SA11. The settings on record: mouse, in vivo.
In the next data set the target is SA11 VP6 (Rotavirus A, UniProt P03531). Details: species or system simian rotavirus SA11. The settings on record: in vivo.
The next data set has as its system murine rotavirus ECwt. As to conditions: mouse, in vivo.
The next data set has as its system full-length NSP4. Details: species or system simian rotavirus SA11. The settings on record: in vivo, sc.

Several values for one entry are separate records, joined by “and”; a condition that tells them apart may be missing. Equal entries are not always repeated. Entries after “also recorded” stand apart in the source; their conditions may differ. Where two headings read alike, the source gives them in different places.

SA11 VP6, sequence (P03531 whole entry, looked up): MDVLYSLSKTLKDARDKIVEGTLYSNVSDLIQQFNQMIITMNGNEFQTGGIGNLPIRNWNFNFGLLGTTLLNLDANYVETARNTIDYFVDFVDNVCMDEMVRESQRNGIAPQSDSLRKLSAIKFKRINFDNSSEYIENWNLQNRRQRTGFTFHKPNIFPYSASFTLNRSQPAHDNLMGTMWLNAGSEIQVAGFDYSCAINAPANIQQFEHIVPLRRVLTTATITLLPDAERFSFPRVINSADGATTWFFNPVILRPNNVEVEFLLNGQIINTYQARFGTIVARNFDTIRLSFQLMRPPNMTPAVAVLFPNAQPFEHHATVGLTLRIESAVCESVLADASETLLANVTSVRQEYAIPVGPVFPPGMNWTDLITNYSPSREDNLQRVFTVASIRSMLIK

With “TKDEIEKQMDRVVKEMRRQLEMIDKLTTREIEQ [NSP4 90-123]”, in the data set with CD1 mice (ip), the “# responders/total # tested” value is 2/10 and the “% Diarrhea” value is on record as 20%.

Consider `C=C[C@@]1(C)CC(=O)[C@]2(O)[C@@]3(C)[C@@H](O)CCC(C)(C)[C@@H]3[C@H](O)[C@H](OC(C)=O)[C@@]2(C)O1` [Forskolin (FSK), forskolin], for which, in the data set with CD1 mice ileal mucosa, the “▴ISC” value was 44 ± 0.7 μA/cm^2 and 41 ± 7 μA/cm^2.

On to EKLTDLNYTLSVITLMNNTLH [NSP4 2-22], for which, in [1], the “% pups with diarrhea, 2 days” value is reported as 63%; the “% pups with diarrhea, 3 days” value worked out at 25%; the “% pups with diarrhea, Total” value turned out to be 100%; the “pups with diarrhea/total pups, 2 days” value is given as “(10/16)”. In addition, in [1], the “pups with diarrhea/total pups, 3 days” value was “(4/16)” and the “pups with diarrhea/total pups, Total” value is “(16/16)”. For the same compound, in the data set with CD1 mice (ip), the “# responders/total # tested” value was 0/11, the “% Diarrhea” value is on record as 0% and the “symptoms with control peptides” value was “No symptoms”.

For the compound DKLTTREIEQVELLKRIYDKLT [NSP4 114-135], in data set [2], the “weight lower than normal animals” value was 20-30%. Moreover, in the data set with CD1 mice ileal mucosa, the “increase in mucosal Isc after FSK pretreatment” value came out at 64 μA/cm2. Also, in data set [1], the “% pups with diarrhea, 2 days” value was 17%; the “% pups with diarrhea, 3 days” value worked out at 0%; the “% pups with diarrhea, Total” value was found to be 42%; the “pups with diarrhea/total pups, 2 days” value is listed as “(2/12)”. For the same compound, in [1], the “pups with diarrhea/total pups, 3 days” value is reported as “(0/12)” and the “pups with diarrhea/total pups, Total” value is reported as “(5/12)”. The “time frame of diarrhea induction” value in the data set on CD1 mice is reported as “about 3 hrs”. Moreover, in the data set with CD1 mice (ip), the “# responders/total # tested” value is 8/12, the “% Diarrhea” value turned out to be 67%, the “DD50 (50% diarrheal dose)” value came to 79 nmol and the “diarrhea typically continued for” value was “up to 8 hr”. The “% Diarrhea” value in the data set on Balb/C mice is 100% and 80%. Moreover, in the data set with 19 day old pups, the diarrhea result is “no diarrhea was seen” and the intestinal fluid accumulation entry is recorded as “significant fluid accumulation”. Further, the “% of animals with diarrhea” value with CFTR knock-out mice was found to be 80%. The “intracellular calcium in insect cells” value in the data set on insect cells was “mobilize intracellular calcium levels”.

For “MIDKLTTREI EQVELL KRIYDKLTVQTTGEIDMTKEINQKNVRTLEEWESGKNPYEPKEVTAAM [NSP4 112-175]”, the enterotoxin activity entry with mice [3] is recorded as “has enterotoxin activity in mice”.

In the case of “EIEQVELLKRIYDKLTVQTTGEIDMTKE [NSP4 120-147]”, in the data set with mice [4], the “% animals with diarrhea” value was found to be 88%, the animals with diarrhea is recorded as 7 out of 8 and the “animals with severe diarrhea” value is given as 5 of 5.

For the compound QS-21, in the data set on simian rotavirus SA11, the Mean diarrhea score is 3.5 and 3.3; the “Pups with diarrhea % at indicated DPI: 3” value was 100%; the “Pups with diarrhea % at indicated DPI: 4” value came out at 56%; the “Pups with diarrhea/total at DPI 2” value is reported as “(8/12); also recorded: (3/9)”. Moreover, in the data set with simian rotavirus SA11, the “Pups with diarrhea/total at DPI 3” value is reported as “(12/12); also recorded: (9/9)”, the “Pups with diarrhea/total at DPI 4” value is “(4/12); also recorded: (5/9)”, the “Pups with diarrhea/total at DPI 7” value is listed as “(12/12); also recorded: (9/9)” and the duration of diarrhea entry was “at least two days”. In addition, in the data set on simian rotavirus SA11 (po), the “Pups with diarrhea % at indicated DPI: 2” value worked out at 76%, the “Pups with diarrhea % at indicated DPI: 3” value is given as 100% and the “Pups with diarrhea % at indicated DPI: 4” value worked out at 33%. Further, the “serum antibody titers to VP6 in dams (GMT)” value at SA11 VP6 is recorded as 2×10^3. Besides, in the data set with murine rotavirus ECwt, the Mean diarrhea score is recorded as 3.3, the “Pups with diarrhea % at indicated DPI: 0-8” value is 100%, the “Pups with diarrhea % at indicated DPI: 2” value is reported as 29% and the “Pups with diarrhea % at indicated DPI: 3” value stood at 100%. In addition, in the data set on murine rotavirus ECwt, the “Pups with diarrhea % at indicated DPI: 4” value is 100%, the “Pups with diarrhea % at indicated DPI: 5” value is listed as 100%, the “Pups with diarrhea % at indicated DPI: 6” value is 86% and the “Pups with diarrhea % at indicated DPI: 7” value is given as 71%. In addition, in the data set with murine rotavirus ECwt, the “Pups with diarrhea % at indicated DPI: 8” value came out at 14%, the “Pups with diarrhea/total at DPI 0-8” value is reported as “(7/7)”, the “Pups with diarrhea/total at DPI 2” value was “(2/7)” and the “Pups with diarrhea/total at DPI 3” value is given as “(7/7)”. Also, in the data set on murine rotavirus ECwt, the “Pups with diarrhea/total at DPI 4” value is “(7/7)”, the “Pups with diarrhea/total at DPI 5” value is recorded as “(7/7)”, the “Pups with diarrhea/total at DPI 6” value was “(6/7)” and the “Pups with diarrhea/total at DPI 7” value is reported as “(5/7)”. For the same compound, the “Pups with diarrhea/total at DPI 8” value in the data set on murine rotavirus ECwt is recorded as “(1/7)”. Moreover, the “serum antibody geometric mean titers (GMT) to NSP4 full-length in dams” value with full-length NSP4 is “lacked antibody”.

In the case of DTGRNLGEFKAYPDGFLTCV [NV 464-483], in the data set with CD1 mice (ip), the “# responders/total # tested” value is listed as 0/10, the “% Diarrhea” value turned out to be 0% and the “symptoms with control peptides” value is given as “No symptoms”.

For `C[N+](C)(C)CCOC(N)=O` [Carbachol (Cch), carbachol], in the data set with CD1 mice ileal mucosa, the “Isc with FSK (potentiated effect of FSK)” value is 64 μA/cm^2; the “increase in mucosal Isc after FSK pretreatment” value was 63 μA/cm2; the “▴ISC” value is 9 ± 2 μA/cm^2 and 14 ± 4 μA/cm^2.
